{"source": "patent US20080118980A1", "about": "“Estrogen Enhancing Differentiation of Human Mesenchymal Stromal Cells and Adipose-derived Stromal Cells” (The Board of Trustees of the University of Illinois,, priority 2006, published 2008)", "test_system": "human bone marrow mesenchymal stem cells (MSCs)", "test": "Proliferation of human bone marrow MSCs in basic medium with E2 or E3 (MTS, Example 3)", "assay_type": "cell-based", "protocol": "This study investigates the mitogenic effects of estrogen receptor ligands on human bone marrow MSCs that is not contacted with osteogenic or adipogenic medium. Purified human bone marrow mesenchymal stem cells (MSCs) were purchased commercially. MSCs were respectively exposed to basic medium (DMEM+10% FBS+1% antibiotics), and basic medium supplement with 10^−6 and 10^−9 M 17-β estradiol (E2) and estriol (E3) for approximately one week. Then, various cells were plated into 96-well plates in 500 cells/well and continued to be exposed to the media. After 4 days, cell densities were measured by MTS methods and compared to initial densities. FIG. 8 illustrates the increase of the number of MSCs after being treated with basic medium and basic medium supplemented with E2 or E3."}
{"smiles": "C[C@]12CC[C@@H]3c4ccc(O)cc4CC[C@H]3[C@@H]1C[C@@H](O)[C@@H]2O", "note": "[E3, estriol]", "values": [{"measurement": "cell proliferation (MTS assay and cell counting)", "setting": "10^−6 and 10^−9 M, about one week then 4 days in 96-well plates, FIG. 8", "value": "greatly increased"}, {"measurement": "differentiation capabilities (adipogenic and osteogenic) of modulated MSCs", "setting": "vs controls", "value": "maintain their differentiation capabilities"}]}
